Measured values from US12338263B2, “Antibacterial aminoglycoside derivatives” (priority 2019, dated 2025).
≈ marks a conversion by molar mass, not a printed value. Read-outs that look alike come from different tables or passages of the source.

How the values were obtained:
Test in all cases: Antibacterial effect (MIC), micro-liquid dilution method (CLSI)
Format in all cases: cell-based
[1] = test system: K. pneumoniae ATCC BAA-1705; settings: Klebsiella pneumoniae, ATCCBAA1705
Protocol: (§1) Three strains Enterobacteriaceae E. coli ATCC 25922, E. coli ATCC BAA-2523, K. pneumonia ATCC BAA-1705 were used to determine the Minimum Inhibitory Concentration (MIC) of each compound by the micro-liquid dilution method according to the requirements of the Institute of Clinical and Laboratory Standard (CLSI). 2-fold series diluted compounds (with a final concentration range […]) were added to a round bottom 96-well plate (Catalog #3788, Corning). A single clone of fresh bacteria on the plate of Mueller Hinton II Agar (MHA, Cat. No. 211438, BD BBL™) after overnight culture was picked and suspended in sterile saline to adjust the concentration to 1×10^8 CFU/mL, and then diluted to 5×10^5 CFU/mL by Cation-Adjusted Mueller Hinton II Broth (MHB, Catalog #212332, BD BBL™), 100 μL of which was added to the round bottom 96-well plate containing the drug. The plate was inverted and incubated at 37° C. for 20-24 hours, and the MIC value was read. The lowest drug concentration that inhibits bacterial growth was defined as MIC.

E. coli ATCC 25922 = settings: Escherichia coli, ATCC25922
Protocol: as §1

E. coli ATCC BAA-2523 = settings: Escherichia coli, ATCCBAA2523
Protocol: as §1

Row | Structure (SMILES) | MIC ([1]; K. pneumoniae ATCC BAA-1705, 37° C., 20-24 hours, read-out: MIC) [µM] | MIC (E. coli ATCC 25922; E. coli ATCC 25922, 37° C., 20-24 hours, read-out: MIC) [µM] | MIC (E. coli ATCC BAA-2523; E. coli ATCC BAA-2523, 37° C., 20-24 hours, read-out: MIC) [µM] | MIC [1] [µM] | MIC (E. coli ATCC 25922) [µM] | MIC (E. coli ATCC BAA-2523) [µM]
1 | CN[C@@H]1[C@@H](O)[C@@H](O[C@@H]2[C@@H](O)[C@H](O[C@H]3OC(CNCCOCCONC(=N)NCC(F)F)=CC[C@H]3N)[C@@H](N)C[C@H]2NC(=O)[C@@H](O)CCN)OC[C@]1(C)O [Compound 2] | 4 (≈ 3.03 µg/mL) | 2 (≈ 1.52 µg/mL) | 4 (≈ 3.03 µg/mL) |  |  | 
2 | CN[C@@H]1[C@@H](O)[C@@H](O[C@@H]2[C@@H](O)[C@H](O[C@H]3OC(CNCCCONC(=N)N)=CC[C@H]3N)[C@@H](N)C[C@H]2NC(=O)[C@@H](O)CCN)OC[C@]1(C)O [Compound 3] |  |  |  | 0.25 (≈ 0.166 µg/mL) | 0.5 (≈ 0.332 µg/mL) | 1 (≈ 0.664 µg/mL)
